According to patent publication US7223759B2, “Antibacterial 3,5-diaminopiperidine-substituted aromatic and heteroaromatic compounds” (Anadys Pharmaceuticals, Inc., priority 2003, dated 2007):
Like-named read-outs stand apart in the source and are kept apart here.

Tested on: Escherichia coli (ATCC25922) or Staphylococcus aureus (ATCC25923)
Experiment: Antibacterial MIC, microdilution method in Mueller-Hinton medium
Type: cell-based
Settings: Escherichia coli, 18 h, read-out: Potency (MIC)
Summary of the method: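 Two-fold serial dilutions from 64 to 0.5 μg/ml, in duplicate, by broth microdilution in Mueller-Hinton medium (NCCLS M7-A5). MIC taken as the lowest concentration preventing visible growth after 18 h at 35° C.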

[1] = MIC in E. coli or S. aureus, two-fold serial dilutions 64 to 0.5 μg/ml in duplicate, 18 hours of incubation at 35° C.

SMILES | MIC | MIC [1]
Cc1ccc(NNc2nc(N3C[C@H](N)C[C@H](N)C3)nc(N3C[C@H](N)C[C@H](N)C3)n2)cc1 [N-(4,6-Bis-((3R,5S)-3,5-diamino-piperidin-1-yl)-[1,3,5]triazin-2-yl)-N′-p-Tolyl-hydrazine] | < 64 µg/mL | 
N[C@@H]1C[C@H](N)CN(c2nc(Nc3ccc(C(=O)N4CCNC(=O)C4)c(O)c3)nc(N3C[C@H](N)C[C@H](N)C3)n2)C1 [N-[3-hydroxy-4-(3-oxo-piperazine-1-carbonyl)-phenyl]-4,6-Bis-((3R,5S)-3,5-diamino-piperidin-1-yl)-[1,3,5]triazine-2-amine] | > 64 µg/mL | 
Cc1cccc(NNc2nc(N3C[C@H](N)C[C@H](N)C3)nc(N3C[C@H](N)C[C@H](N)C3)n2)c1 [N-(4,6-Bis-((3R,5S)-3,5-diamino-piperidin-1-yl)-[1,3,5]triazin-2-yl)-N′-m-Tolyl-hydrazine] | < 64 µg/mL | 
CCN(C)CCNC(=O)c1ccc(NC(=O)CC(=O)c2ccc(Nc3nc(N4CCCCC4)nc(N4CCCCC4)n3)cc2)cc1.Cl [N-(4-{2-[4-(2-diethylamino-ethylcarbamoyl)-phhenylcxarbamoyl]-acetyl}-phenyl)-4,6-Bis-((3R,5S)-3,5-diamino-piperidin-1-yl)-[1,3,5]triazine-2-amine] |  | > 64 µg/mL
Cc1cc(Br)ccc1Nc1nc(N2C[C@H](N)C[C@H](N)C2)nc(N2C[C@H](N)C[C@H](N)C2)n1 [N-(4-bromo-2-methyl-phenyl)-4,6-Bis-((3R,5S)-3,5-diamino-piperidin-1-yl)-[1,3,5]triazine-2-amine] | > 64 µg/mL | 
N[C@@H]1C[C@H](N)CN(c2nc(NCc3ccc(Oc4ccccc4)cc3)nc(N3C[C@H](N)C[C@H](N)C3)n2)C1 [N-(4-phenoxy-benzyl)-4,6-Bis-((3R,5S)-3,5-diamino-piperidin-1-yl)-[1,3,5]triazine-2-amine] | > 64 µg/mL | 
Cc1ccc(S(=O)(=O)N(Cc2ccccc2)c2ccc(Nc3nc(N4C[C@H](N)C[C@H](N)C4)nc(N4C[C@@H](O)[C@@H](O)C4)n3)cc2O)cc1 [N-Benzyl-N-{4-[4-((3R,5S)-3,5-diamino-piperidin-1-yl)-6-((3R,4S)-3,4-dihydroxy-pyrrolidin-1-yl)-[1,3,5]triazin-2-ylamino]-2-hydroxy-phenyl}-4-methyl-benzenesulfonamide] | < 64 µg/mL | 
Cl.N[C@@H]1C[C@H](N)CN(c2nc(N3C[C@H](N)C[C@H](N)C3)nc(N(c3ccccc3)c3ccc(O)cc3)n2)C1 [4-{[4,6-Bis-((3R,5S)-3,5-diamino-piperidin-1-yl)-[1,3,5]triazin-2-yl]-phenyl-amino}-phenyl] |  | > 64 µg/mL
N[C@@H]1C[C@H](N)CN(c2nc(Nc3ccc(C(=O)N4CCOCC4)c(O)c3)nc(N3C[C@H](N)C[C@H](N)C3)n2)C1 [N-[3-hydroxy-4-(morpholine-4-carbonyl)-phenyl]-4,6-Bis-((3R,5S)-3,5-diamino-piperidin-1-yl)-[1,3,5]triazine-2-amine] | > 64 µg/mL | 
N[C@@H]1C[C@H](N)CN(c2nc(Nc3ccc(C(=O)Nc4ccccc4)cc3)nc(N3C[C@H](N)C[C@H](N)C3)n2)C1 [N-(4-phenylcarbamoyl-phenyl)-4,6-Bis-((3R,5S)-3,5-diamino-piperidin-1-yl)-[1,3,5]triazine-2-amine] |  | > 64 µg/mL
Cc1ccc(C(=O)Nc2ccc(Nc3nc(N4C[C@H](N)C[C@H](N)C4)nc(N4C[C@H](N)C[C@H](N)C4)n3)cc2O)c(O)n1 [N-{3-hydroxy-4-[(2-hydroxy-6-methyl-pyridine-3-carbonyl)-amino]-phenyl}-4,6-Bis-((3R,5S)-3,5-diamino-piperidin-1-yl)-[1,3,5]triazine-2-amine] | < 64 µg/mL | 
N[C@@H]1C[C@H](N)CN(c2nc(NCCCn3ccnc3)nc(Nc3ccc(S(=O)(=O)Nc4ccc5cn[nH]c5c4)cc3)n2)C1 [4-[4-((3S,5R)-3,5-Diamino-piperidin-1-yl)-6-(3-imidazol-1-yl-propylamino)-[1,3,5]triazin-2-ylamino]-N-(1H-indazol-6-yl)-benzenesulfonamide] | > 64 µg/mL | 
N[C@@H]1C[C@H](N)CN(c2nc(Nc3ccc4ccccc4c3)nc(N3C[C@H](N)C[C@H](N)C3)n2)C1 [N-naphthalene-2-yl-4,6-Bis-((3R,5S)-3,5-diamino-piperidin-1-yl)-[1,3,5]triazine-2-amine] | < 64 µg/mL | 
N[C@@H]1C[C@H](N)CN(c2nc(Nc3ccc(N4CCOCC4)cc3)nc(N3C[C@H](N)C[C@H](N)C3)n2)C1 [N-(4-morpholin-4-yl-phenyl)-4,6-Bis-((3R,5S)-3,5-diamino-piperidin-1-yl)-[1,3,5]triazine-2-amine] | > 64 µg/mL | 
N[C@@H]1C[C@H](N)CN(c2nc(Nc3ccc(NC(=O)c4ccc(Cl)cc4O)c(Cl)c3)nc(N3C[C@H](N)C[C@H](N)C3)n2)C1 [N-[3-chloro-4-(4-chloro-2-hydroxy-benzoylamino)-phenyl]-4,6-Bis-((3R,5S)-3,5-diamino-piperidin-1-yl)-[1,3,5]triazine-2-amine] | < 16 µg/mL | 
COc1ccc(NC(C)=O)cc1Nc1nc(N2C[C@H](N)C[C@H](N)C2)nc(N2C[C@H](N)C[C@H](N)C2)n1 [N-(5-acetylamino-2-methoxy-phenyl)-4,6-Bis-((3R,5S)-3,5-diamino-piperidin-1-yl)-[1,3,5]triazine-2-amine] |  | > 64 µg/mL
Cc1cc(Nc2nc(N3C[C@H](N)C[C@H](N)C3)nc(N3C[C@H](N)C[C@H](N)C3)n2)cc(Cl)c1NC(=O)c1ccc(Cl)cc1O [N-[3-chloro-4-(4-chloro-2-hydroxy-benzoylamino)-5-methyl-phenyl]-4,6-Bis-((3R,5S)-3,5-diamino-piperidin-1-yl)-[1,3,5]triazine-2-amine] | < 16 µg/mL | 
N[C@@H]1C[C@H](N)CN(c2nc(Nc3ccc(NC(=O)C45CC6CC(CC(C6)C4)C5)c(O)c3)nc(N3C[C@H](N)C[C@H](N)C3)n2)C1 [N-{4-[(adamantane-1-carbonyl)-amino]-3-hydroxy-phenyl}-4,6-Bis-((3R,5S)-3,5-diamino-piperidin-1-yl)-[1,3,5]triazine-2-amine] |  | < 16 µg/mL
N[C@@H]1C[C@H](N)CN(c2nc(Nc3ccc(NC(=O)c4cc5cccc(O)c5cc4O)cc3)nc(N3C[C@H](N)C[C@H](N)C3)n2)C1 [N-{4-[(3,5-dihydroxy-naphthalene-2-carbonyl)-amino]-phenyl}-4,6-Bis-((3R,5S)-3,5-diamino-piperidin-1-yl)-[1,3,5]triazine-2-amine] |  | < 64 µg/mL
N[C@@H]1C[C@H](N)CN(c2nc(Nc3ccc(S(=O)(=O)Nc4ccc5cn[nH]c5c4)cc3)nc(NC3CCCNC3)n2)C1 (stereo partly drawn) [4-[4-((3S,5R)-3,5-Diamino-piperidin-1-yl)-6-(piperidin-3-ylamino)-[1,3,5]triazin-2-ylamino]-N-(1H-indazol-6-yl)-benzenesulfonamide] |  | > 64 µg/mL
NC[C@H]1[C@@H](O)CCN1c1nc(Nc2ccc(NC(=O)c3ccc4ccccc4c3O)cc2)nc(N2C[C@H](N)C[C@H](N)C2)n1 [1-Hydroxy-naphthalene-2-carboxylic acid {4-[4-((2S,3S)-2-aminomethyl-3-hydroxy-pyrrolidin-1-yl)-6-((3R,5S)-3,5-diamino-piperidin-1-yl)-[1,3,5]triazin-2-ylamino]-phenyl}-amide] | < 16 µg/mL | 
N[C@@H]1C[C@H](N)CN(c2nc(Nc3ccc(C(=O)CC(=O)Nc4cccc(CO)c4)cc3)nc(N3C[C@H](N)C[C@H](N)C3)n2)C1 [N-{4-[2-(3-hydroxymethyl-phenylcarbamoyl)-acetyl]-phenyl}-4,6-Bis-((3R,5S)-3,5-diamino-piperidin-1-yl)-[1,3,5]triazine-2-amine] | > 64 µg/mL | 
N[C@@H]1C[C@H](N)CN(c2nc(Nc3ccc(NC(=O)c4ccc(F)cc4O)c(Cl)c3)nc(N3C[C@H](N)C[C@H](N)C3)n2)C1 [N-[3-chloro-4-(4-fluoro-2-hydroxy-benzoylamino)-phenyl]-4,6-Bis-((3R,5S)-3,5-diamino-piperidin-1-yl)-[1,3,5]triazine-2-amine] | > 64 µg/mL | 
COc1cc(NC(=O)CC(=O)c2ccc(Nc3nc(N4C[C@H](N)C[C@H](N)C4)nc(N4C[C@H](N)C[C@H](N)C4)n3)cc2)cc(OC)c1OC [N-{4-[2-(3,4,5-trimethoxy-phenylcarbamoyl)-acetyl]-phenyl}-4,6-Bis-((3R,5S)-3,5-diamino-piperidin-1-yl)-[1,3,5]triazine-2-amine] |  | > 64 µg/mL
Cl.Nc1nc(N2C[C@H](N)C[C@H](N)C2)nc(N2C[C@H](N)C[C@H](N)C2)n1 [4,6-Bis-((3R,5S)-3,5-diamino-piperidin-1-yl)-[1,3,5]triazin-2-ylamine] |  | > 64 µg/mL
Cc1ccc(S(=O)(=O)N(Cc2ccccc2)c2ccc(Nc3nc(N4C[C@H](N)C[C@H](N)C4)nc(N4C[C@@H](N)C[C@H]4CO)n3)cc2O)cc1 [N-{4-[4-((2S,4S)-4-Amino-2-hydroxymethyl-pyrrolidin-1-yl)-6-((3R,5S)-3,5-diamino-piperidin-1-yl)-[1,3,5]triazin-2-ylamino]-2-hydroxy-phenyl}-N-benzyl-4-methyl-benzenesulfonamide] | < 64 µg/mL | 
Cl.O=C(Nc1ccc(Nc2nc(N3CCCCC3)nc(N3CCCCC3)n2)cc1Cl)c1ccc(C(F)(F)F)nc1O [N-{3-chlorro-4-[(2-hydroxy-6-trifluoromethyl-pyridine-3-carbonyl)-amino]-phenyl}-4,6-Bis-((3R,5S)-3,5-diamino-piperidin-1-yl)-[1,3,5]triazine-2-amine] |  | < 16 µg/mL
N[C@@H]1C[C@H](N)CN(c2nc(Nc3ccc(NC(=O)c4ccc(C(F)(F)F)nc4O)cc3)nc(N3C[C@H](N)C[C@H](N)C3)n2)C1 [N-{4-[(2-hydroxy-6-trifluoromethyl-pyridine-3-carbonyl)-amino]-phenyl}-4,6-Bis-((3R,5S)-3,5-diamino-piperidin-1-yl)-[1,3,5]triazine-2-amine] | < 16 µg/mL | 
Cc1cccc(C(=O)Nc2ccc(Nc3nc(N4C[C@H](N)C[C@H](N)C4)nc(N4C[C@H](N)C[C@H](N)C4)n3)cc2O)c1O [N-[3-hydroxy-4-(2-hydroxy-3-methyl-benzoylamino)-phenyl]-4,6-Bis-((3R,5S)-3,5-diamino-piperidin-1-yl)-[1,3,5]triazine-2-amine] | < 16 µg/mL | 
